# Test results from patent publication US20080195033A1, “Method of Delivery of Therapeutic Metal Ions, Alloys and Salts” (INTERNATIONAL BIO-THERAPEUTIC RESEARCH INC., priority 2004, published 2008).
# What was measured:
# [1] = test system: CEM-SS infected with HIVIIIB; assay: Cell viability of HIV-infected CEM-SS cells by trypan blue dye exclusion; assay type: cell-based, HIV-1; conditions: 1.0 mA; for Cell Viability, HIV-Infected Cells: 7 days post exposure
# Experimental: (§1) In one test performed according to the invention, infection studies were carried out in a Level III facility in vitro using HIV-infected and noninfected cells. To establish infection, a viral dose of MOI 0.5 was added to a culture flask. The supernatants of control and test flasks were tested for the presence of the p24 antigen. Cells were then incubated in the presence and absence of silver ions produced by passing current through a sterile silver electrode present in the culture flask. Current was applied for 0, 1, 5, 10 and 30 minutes after incubation of virus with the cells. Cells were then be maintained in culture for 7 days and the concentration of p24 antigen in the supernatant was determined.
# (§2) The cells used for such studies were CEM-SS cultured human lymphoblasts to allow detection and monitoring of HIV-induced synceytium. Cells were grown in enriched RPMI medium (20% fetal calf serum; FCS) and maintained in a 5% CO2 enriched tissue culture incubator at 37 degrees Celsius. Infection was conducted at a Multiplicity Dose of 0.5 using HIVIIIB prepared from previously infected CEM-SS stock suspensions.
# (§3) In this test performed according to the invention, a silver catheter was introduced by drill into the tissue culture flask, sealed and the flask was then gas-sterilized. Silver ions were generated by connecting the silver electrode to a purpose-built device designed by one of the investigators (RE) powered by a 9 volt battery and designed to generate a steady current of 1.0 milliamp.
# (§4) Cell viability was determined using trypan blue dye exclusion. The HIV p24 antigen concentrations in the culture supernatants were determined using an antigen capture assay.
# (§5) Each experiment was performed in triplicate and repeated three times. Differences between cells exposed and unexposed to silver ions were compared by analysis of variance.
# [2] = test system: HIVIIIB in CEM-SS cells (p24 antigen); assay: HIV p24 antigen in culture supernatant by antigen capture assay; assay type: cell-based, HIV-1
# Experimental: as §1, §2, §3, §4, §5
substance,measurement,setting,value
silver ions,Increase in cell viability of infected cells compared to similar cells not subjected to the silver ion treatment,[1]; 10 minutes of silver ion exposure,greater than 25%
same,"Cell Viability, HIV-Infected Cells",[1]; five minute treatment,45% alive
same,"Cell Viability, HIV-Infected Cells",[1]; one minute treatment,37% alive
same,"Cell Viability, HIV-Infected Cells","[1]; one minute treatment, listed as Silver Ions",37%
same,"Cell Viability, HIV-Infected Cells",[1]; ten minute treatment,54% alive
same,"Cell Viability, HIV-Infected Cells","[1]; ten minute treatment, listed as Silver Ions",54%
same,"Cell Viability, HIV-Infected Cells",[1]; thirty minute treatment,28% alive
same,Change in p24 antigen (in words),[2]; after 10 minutes of 1.0 mA current flow,decline
same,Decline in the concentration of p24 antigen in HIV-exposed cultures,"[2]; over thirty minutes, 1.0 mA, p<0.05",56%
same,Change in p24 concentration (in words),[2]; silver ion incubation for five minutes,initial increase
